What was measured:
BP tumor cells = experiment: Pro-inflammatory cytokine expression in BP tumor cells (RT-qPCR, IFNβ ELISA); format: cell-based, mouse; settings: olaparib two days
Procedure: Total RNA was extracted using RNeasy® Plus Mini Kit (QIAGEN, #74134). An iScript Reverse Transcription Supermix (Bio-Rad, #1708841) was used for the first-strand cDNA synthesis with 1 μg total RNA. Real-time PCR was performed using SYBR™ Select Master Mix (Thermo Fisher, #4472908) with gene-specific primers (mouse/16, forward 5′-[…]-3′, reverse 5′-[…]-3′; mouse//1b, forward 5′-[…]-3′, reverse 5′-[…]-3′; mouse Cxcl1, forward 5′-[…]-3′, reverse 5′-[…]-3′; mouse Ifnb, forward 5′-[…]-3′, reverse 5′-[…]-3′; mouse Ccl5, forward 5′-[…]-3′, reverse 5′-[…]-3′; mouse Cxcl10, forward 5′-[…]-3′, reverse 5′-[…]-3′; mouse Actb, forward 5′-[…]-3′, reverse 5′-[…]-3′; human IL6, forward 5′-[…]-3′, reverse 5′-[…]-3′; human IL1B, forward 5′-[…]-3′, reverse 5′-[…]-3′; human CXCL1, forward 5′-[…]-3′, reverse 5′-[…]-3′; human GAPDH, forward 5′-[…]-3′, reverse 5′-[…]-3′). Relative mRNA levels were calculated using the […]. Mouse Actb and human GAPDH were used as endogenous controls for mouse and human samples, respectively.
Tumor cells were treated with olaparib or DMSO vehicle control for two days. To assess IFNβ production by tumor cells, cell culture supernatants were harvested and subjected to centrifugation at 1,500×g for 10 min at 4° C. to remove floating cells and debris. IFNβ was then detected via mouse IFNβ ELISA Kit (Thermo Fisher, #424001) according to manufacturer's instructions.

PBM tumor cells = experiment: Measurement of IC50 value in PBM tumor cells (CellTiter-Glo); format: cell-based; settings: Mus musculus; reference value for the PBM-R3 fold; 72 h
Procedure: Tumor cells were seeded in 96-well plates at a density of 2000-3000/well and allowed to adhere overnight. Cells were then exposed to appropriate concentrations of therapeutic agents (or vehicle control) with continuous exposure for 72 h. Growth inhibition was measured by CellTiter-Glo® 2.0 Cell Viability Assay from Promega according to manufactory's introduction. IC50 values were calculated using non-linear regression model (logarithmic inhibitor vs. normalized response-variable slope) in Graphpad Prism 9.

PBM tumors = experiment: PBM ovarian tumor burden in syngeneic FVB/NJ mice; format: in vivo, mouse; settings: olaparib 50 mg/kg i.p. 6 days a week; most tumors eventually progressed; FIG. 15B
Procedure: Tumor burden of PBM tumor-bearing mice treated with indicated agents was measured by bioluminescence (ROI, […]) after 2 weeks of treatment (control, n=6; olaparib, n=7, olaparib+MSA-2, n=4). Ordinary one-way ANOVA analysis. **, P<0.01; ***, P<0.001. The murine ovarian tumor model PBM used for this experiment was previously generated (Ding L, Kim H J, Wang Q, Kearns M, Jiang T, Ohlson C E, Li B B, Xie S, Liu J F, Stover E H, Howitt B E, Bronson R T, Lazo S, Roberts T M, Freeman G J, Konstantinopoulos P A, Matulonis U A, Zhao J J. PARP Inhibition Elicits STING-Dependent Antitumor Immunity in Brca1-Deficient Ovarian Cancer. Cell Rep. 2018 Dec. 11;25 (11): 2972-2980.e5. doi: 10.1016/j.celrep.2018.11.054. PMID: 30540933; PMCID: PMC6366450). About 2×10^5 PBM tumor cells were orthotopically transplanted into syngeneic FVB/NJ mice. Ten days after transplantation, Tumor-bearing mice were equivalently divided into control and treatment groups according to the luminescent intensity. Tumor burden of PBM tumor-bearing mice was measured by bioluminescence (ROI, […]). Olaparib (AZD2281) was administered daily by i.p. (intraperitoneal) injection at dose of 50 mg/kg body weight. […]
The PBM and PBM-R tumor cells were transplanted orthotopically into syngeneic FVB/NJ mice to generated tumors for drug evaluation. […] The endpoints were determined by tumor burden and ascites.

PE tumors = experiment: Flow cytometry of immune cells in PE tumors and tumor-drainage lymph nodes; format: in vivo, mouse; settings: single-agent treatment; FIG. 30B
Procedure: To obtain single-cell suspension from tumor mass, tumors were excised, minced and dissociated in collagenase buffer (DMEM supplemented with 5% FBS, 10 mM HEPES [Gibco), 100 μg/mL penicillin-streptomycin, 20 μg/mL DNase I [StemCell] and 1× collagenase/hyaluronidase [StemCell]) at 37° C. for 45 min. Tumor-draining lymph nodes were isolated from tumor-bearing mice and were mashed through 70 μm strainer using plunger of a syringe to obtain single-cell suspension.
For FACS staining, tissue cells were first stained with LIVE/DEAD Fixable Aqua Dead Cell Stain (Thermo Fisher) for 30 min on ice, followed by blocking with anti-CD16/32 (BioLegend) for 20 minutes on ice. Afterwards, cells were incubated with antibodies targeting surface biomarkers in FACS buffer for 30 minutes on ice.

Row | Compound | IFNB, Ccl5 and Cxcl10 in BP-sgSTING cells (BP tumor cells; BP-sgSTING cells, FIG. 11D-F) | pro-inflammatory cytokines (Ifnb, Ccl5 and Cxcl10) in BP tumor cells (BP tumor cells; control medium or naive BMDM-CM, FIG. 6E) | IC50 (PBM tumor cells) | PBM tumor response (PBM tumors) | tumor immune microenvironment of large PE tumors (PE tumors)
1 | O=C(c1cc(Cc2n[nH]c(=O)c3ccccc23)ccc1F)N1CCN(C(=O)C2CC2)CC1 [olaparib] | failed to up-regulate | marked up-regulation | 560 nM | initial robust response | –
2 | COc1cc2cc(C(=O)CCC(=O)O)sc2cc1OC [MSA-2] | – | – | – | – | did not significantly affect

— patent publication US20250009743A1, “METHODS OF TREATING CANCERS USING STING AGONISTS” (Dana-Farber Cancer Institute, Inc., priority 2021, published 2025)
